According to a melting point compilation (Tetko et al.; mined from patent text by program, amines drawn as free bases though some values may be those of a salt):

Row | melting point [°C] | SMILES
1 | 187 to 188 | O=C(c1cccc(Br)c1)C(Br)C(Br)c1cc(Br)ccc1[N+](=O)[O-] (configuration not stated)
2 | 260 | COc1cc2c(cc1F)C(=O)C(=O)N2
3 | 77 to 78 | CCOC(=O)c1[nH]c2ccc(F)cc2c1N
4 | 226 to 228 | COc1ccc(-c2cnn(-c3ccc(N4C[C@H](CNC(C)=O)OC4=O)cc3F)c2)cc1
5 | 133 to 135 | C=C(C)Cc1c(O)c(C)c(C)c2c1CC(C)N2C=O (configuration not stated)
6 | 173 to 175 | Cn1cc(-c2cccc(N3Cc4cc(C(C)(C)C)ccc4C3=O)c2CO)cc(Nc2ccn(C3CC3)n2)c1=O
7 | > 260 | CCCCc1cc(=O)c2ccccc2n1Cc1ccc(-c2ccccc2C(=O)O)cc1
8 | 149 to 150 | O=C(NCCO)c1cccc(-c2ccc3c(c2)N(Cc2cc(Cl)ccc2Cl)CC3)c1
9 | 135 to 136 | Cc1cc(C)c2c(c1O)C(N)C(c1ccccc1)C2 (configuration not stated)
10 | 176 to 177 | Cc1c(Br)c2c(c(C)c1NC(=O)OC(C)(C)C)CCO2
11 | 42 to 45 | CCC(CC)n1nnc2cc(C(F)(F)F)cc([N+](=O)[O-])c21
12 | 142 to 143 | COc1nc(C)nc(NC(=O)NS(=O)(=O)c2ccccc2C=CCC#N)n1
13 | 219 to 220 | N#Cc1cccc(CCC(=O)c2c(O)c3cccnc3n(-c3ccccc3)c2=O)c1
14 | 125 to 128 | CC(C#N)NNC(N)=O (configuration not stated)
15 | 103 to 105 | CCCCOc1cc(CCC(=O)O)ccc1-c1cccc(CN(C)C(=O)c2ccccc2)c1
16 | 100 to 101 | CCOP(=O)(Cc1cccc(CN2C(=O)c3ccccc3C2=O)c1)OCC
17 | 288 to 290 | CS(=O)(=O)c1ccc(C(=O)O)c(Cl)c1-c1nccs1
18 | 273 to 274 | N#CCCc1cc(F)c2ncc(C(=O)NCc3ccc(Cl)cc3)c(O)c2c1
19 | 125 to 127 | O=C(NCCC12CC3CC(CC(C3)C1)C2)c1ccccc1Cl
20 | 158 to 159 | COc1cccc2c1CCCC2=NO
21 | 127 to 130 | CCC(=O)N(CC)c1cccc(-c2ccc3nncn3n2)c1
22 | 82 to 84 | CS(=O)(=O)c1ccc(-c2cc(C(=O)CO[N+](=O)[O-])nn2-c2ccccn2)cc1

The remaining lines, values behind:

Row | SMILES | melting point [°C]
23 | COC12CC(CCOC(=O)c3[nH]c(C)cc3C)CN(C)C1Cc1cn(C)c3cccc2c13 (configuration not stated) | 152 to 153
24 | CC(=O)O[C@@H](C)C(=O)Nc1c(C(=O)c2cc(C)ccn2)[nH]c2cc(Cl)ccc12 | 213 to 214
25 | Cc1cc(OCC(=O)O)c2sc3ccccc3c(=O)c2c1C | 226 to 229
26 | O=C(NN1CCc2ccccc2C1)Oc1ccc2c(c1)CN(Nc1ccncc1)C2 | 162 to 163
27 | CCCCCNC(=O)N(C)c1cccc(-c2ccc(CCC(=O)O)cc2OCCOCC)c1 | 61 to 62
28 | CCN(c1ccc([N+](=O)[O-])cc1C#N)S(=O)(=O)c1ccc(C)cc1 | 135 to 136
29 | CCOC(=O)C1(c2ccccc2)CCN(C2CCC(C#N)(c3ccc(F)cc3C)CC2)CC1 (configuration not stated) | 135
30 | COc1ccc(N2CCN(c3c(C)c(C)c4c(c3-c3ccc(N(C)C)cc3)CC(C)(C)O4)CC2)cc1 | 177 to 179
31 | COc1cc(C)c(C)cc1NC(=S)N1CCN(c2cc(Cl)cc(Cl)c2)CC1 | 188 to 189
32 | CCCCCCCCCCCCCCCCCCOc1ccc(C(C)=O)cc1 | 69 to 70
33 | CCCCc1nn(-c2cc([N+](=O)[O-])ccc2Cl)c(=O)n1Cc1ccc(-c2ccccc2S(N)(=O)=O)cc1 | > 90
34 | CC12CCC3C(CC(O)C4(O)CC=CCC34C)C1CCC2=O (configuration not stated) | 183 to 186
35 | CC(C)CC(NC(=O)OC(C)(C)C)C(=O)NCCC(=O)O (configuration not stated) | 91 to 92
36 | Cc1nc(OCCN2CCOCC2)c([N+](=O)[O-])c(N2CCc3ccccc3CC2)n1 | 143 to 145
37 | CCOC(=O)c1ncsc1-c1cccc(OCc2cccc(C#N)c2)c1 | 85
38 | Nc1c(C(F)(F)F)cc(OCc2ccccc2)cc1C(F)(F)F | 58 to 59
39 | CC1(C)Cc2c(sc(N)c2C(N)=O)CO1 | 212 to 214
40 | O=c1ccn(-c2cc3[nH]c(=O)c(=O)[nH]c3cc2[N+](=O)[O-])cc1[N+](=O)[O-] | > 300
41 | COc1ccc2c(c1)/C(=N\NC(N)=O)C(=O)N2CCN(C(C)C)C(C)C | 157 to 159
42 | CCCCC(=O)Nc1nc2ccc(Cl)cc2nc1N | 224 to 228
43 | O=C(O)[C@@H]1CCCN(CC#CCN2c3ccccc3CCc3ccccc32)C1 | 153 to 154
44 | CC(=O)OC12Oc3cc(C)ccc3C1(OC(C)=O)C(=O)c1ccccc12 (configuration not stated) | 167 to 169
45 | CCCCCNS(N)(=O)=O | 60 to 63
46 | CC(=O)Oc1ccc(-c2ccc(F)cc2)cc1C(=O)O | 134 to 137
47 | CC(C)Cc1nn(C)c(=O)c2cc(C(O)c3cccc4ccccc34)sc12 (configuration not stated) | 165 to 167

Row | SMILES | melting point [°C]
48 | O=CC1CC1(c1cccc(F)c1)c1cccc(F)c1 (configuration not stated) | 49 to 51
49 | CC(=O)c1cc(Nc2ccn(-c3ccccc3)n2)ccc1O | 165 to 167
50 | Cc1cc(-c2cc(C(F)(F)F)nn2-c2ccc(S(C)(=O)=O)c(F)c2)ccc1-c1cocn1 | 141 to 143
51 | c1ccc(Nc2nc(-c3cccs3)nc3ccccc23)cc1 | 137 to 139
52 | O=CNC=Cc1cc(O)ccc1O | 149 to 153
53 | COc1cccc(OC)c1C(=O)P(=O)(C(=O)c1c(C)cc(C)cc1C)c1ccccc1 (configuration not stated) | 126 to 127
54 | Cc1nnc(-c2ccc3occ(-c4ccc(S(C)(=O)=O)c(C)c4)c3c2)o1 | 173 to 174
55 | Nc1cc(OCc2ccccc2)c(C(=O)O)cc1Cl | 182 to 184
56 | NS(=O)(=O)c1ccc(-c2cnn(-c3ccc(F)cc3)c(=O)c2Oc2ccc(F)cc2)cc1 | 227 to 229
57 | CCCCc1nc2c(C(=O)O)cccc2n1Cc1ccc(C(=O)O)cc1 | 250
58 | CN1CCC(Oc2ccc(Br)cc2C(N)=O)C1 (configuration not stated) | 160 to 162
59 | COC=C(C(=O)OC)c1ccccc1Oc1ncnc(F)c1F | 69
60 | COCc1cc2c(N=C=S)cccc2cn1 | 88
61 | Cc1nnc(-c2ncn3c2[C@@H]2CCCN2C(=O)c2c(Cl)cccc2-3)o1 | 253 to 254
62 | N#CNC(=Nc1ccncc1)NCCOc1ccccc1 | 167 to 170
63 | Cc1ccc(-c2cc3ncnc(Nc4ccc5[nH]ccc5c4)c3s2)cc1 | 200 to 220
64 | CCc1c(C)c(=O)oc2cc(-c3ccc(C(C)C)cc3)cc(OC)c12 | 83
65 | Cc1c(-c2ccc(O)cc2)oc2ccccc2c1=O | 241 to 242
66 | N#Cc1ccc2c(c1)CCC(c1ccccc1F)=C2CCO | 119
67 | CCN(CC)CCCCC1CCN(C(=O)N2c3ccccc3C(=O)Nc3cccnc32)CC1 | 126 to 127
68 | O=S1(=O)OC[C@H]2CCCN21 | 45 to 46
69 | CCCc1ccc(OC)c2c(C)c(C(=O)OCC)oc12 | 43 to 46
70 | CN(C)N1C(=O)c2ccccc2NS1(=O)=O | 168
71 | COc1ccc(C(=O)CCC(C(=O)c2ccc(OCc3ccccc3)cc2)c2ccc(OC)cc2)cc1 (configuration not stated) | 132 to 134
72 | NS(=O)(=O)CS(=O)(=O)c1ccc(SCCO)cc1 | 136 to 137
